In US20200362301A1, “EFFICIENT, SCALABLE PRODUCTION OF HUMAN RETINAL PROGENITORS IN VITRO” (Wisconsin Alumni Research Foundation, priority 2019, published 2020):

Columns and labels:
Assay type in all cases: cell-based, human
PAX6D KO cells = assay: qPCR of retinal gene expression in PAX6D KO cells treated with WNT antagonist (rescue of retinal differentiation); conditions: treatment from day 0 to day 10 of retinal differentiation
Source text: (§1) We then asked if the failure of retinal specification in the PAX6D KO cells is rescued by regulating WNT signaling. Treatment of the PAX6D KO cells with IWR1 during retinal differentiation from day 0 to day 10 increased the expression of retinal related genes, including VSX2, LHX2, HES5, SIX3 and SIX6 (FIG. 8C). […] To further corroborate the role of WNTs in mediating the function of PAX6D in retinal specification, we then activated WNT pathway signaling under PAX6D induction along retinal differentiation.
(§2) PAX6 KO and PAX6D KO cell lines were designed by inserting the PGK-Puromycin in exon 8 and exon alpha of the PAX6 gene, respectively, which terminates the normal translation of PAX6 genes early and PAX6D isoform specifically. The PAX6 KO cells were then used to generate PAX6A TetOn and PAX6D TetOn by inserting the TetOn-PAX6A-3×FLAG and TetOn-PAX6D-3×FLAG into the AAVS1 site of PAX6 KO genome.
Retinal differentiation from human pluripotent stem cells was performed using the published protocol (Zhong et al., 2014). Briefly, hESCs were passaged to Vitronectin-coated plates and cultured to 60-70% confluency. […]
(§3) Total RNA was isolated with the RNeasy Plus Mini Kit according to the manufacturer's instructions. For quantitative PCR (qPCR), cDNA was synthesized using PrimeScrip RT Reagent Kit. qPCR was performed using iTaq Universal SYBR Green Supermix. […]

[1] = test system: wildtype cells (H9 hESCs) in retinal differentiation; assay: qPCR of retinal gene (EFTF) expression in wildtype cells during retinal differentiation under WNT agonist/antagonist
Method: WNT8B has a restricted expression in the developing dorsal forebrain (Lako et al., 1998) and plays a repressive role in retinal fate specification (Liu et al., 2010). […] Given the direct connection between PAX6D and WNT8B, we hypothesized that PAX6D regulates retinal specification by repressing WNT8B transcription and thus WNT activity. Indeed, treatment with WNT agonist (CHIR99021, 3 μM) in wildtype cells from day 0 to day 10 suppressed the expression EFTFs. In contrast, treatment with a WNT antagonist (IWR1, 2.5 μM) in wildtype cells enhanced the expression of EFTFs (FIG. 8B).
(§4) Retinal differentiation from human pluripotent stem cells was performed using the published protocol (Zhong et al., 2014). Briefly, hESCs were passaged to Vitronectin-coated plates and cultured to 60-70% confluency. On day 0 of retinal differentiation, cells were enzymatically detached by dispase (1 mg/ml) and cultured in suspension with E8 medium to form embryoid bodies (EB). […]
as §3

PAX6D TetOn cells [2] = assay: qPCR of retinal gene expression in PAX6D TetOn cells with DOX induction, with or without WNT agonist
Source text: (§5) We then examined the retinal progenitor population when PAX6A or PAX6D was induced. We turned on PAX6A and PAX6D separately in PAX6 KO cells after neuroepithelial cells were generated at day 6 and monitored the retinal progenitor generation along retinal differentiation. […] Thus, PAX6D but not PAX6A restores the PAX6 function in retinal specification.
as §1, §2
as §4, with “(EB). EBs were gradually transitioned into neural induction medium (NIM) containing DMEM/F12 (1:1), 1% N2 and 1×NEAA by replacing the medium with a 3:1 ratio of E8/NIM on day 1, 1:1 on day 2, and 100% NIM on day 3.” for “(EB).”
as §3

PAX6D TetOn cells [3] = assay: Flow cytometry of SOX1-/SOX2+ retinal progenitor population in PAX6D TetOn cells; conditions: PAX6D induced (from 2.71% without induction)
Method: as §5
(§6) Flow cytometry was performed using Transcription Factor Buffer Set which is designed for transcription factor staining following manufacturer's instruction. Briefly, single cells were prepared using TrypLE Express Enzyme and fixed in the fixation buffer provided by the kit at 2-8° C. for 45 min. After 3 washings with the permeable buffer, the primary antibodies (PE-SOX1, V450-SOX2) were added to cells for 45 min at 2-8° C. in a light-tight box. The cells were washed 3 times before analyzed by flow cytometry (BD LSR or BD LSRII). Data analysis was performed using FlowJo.

PAX6A TetOn cells = assay: Flow cytometry of SOX1-/SOX2+ retinal progenitor population in PAX6A TetOn cells; conditions: PAX6A induced (from 2.45% without induction)
Method: as §5, §6

[4] = PAX6D TetOn in PAX6 KO, DOX for 7 days from day 6 of retinal differentiation

O=C(Nc1cccc2cccnc12)c1ccc(N2C(=O)[C@@H]3[C@H](C2=O)[C@@H]2C=C[C@H]3C2)cc1 [IWR1]
expression of retinal related genes, including VSX2, LHX2, HES5, SIX3 and SIX6 (PAX6D KO cells): increased | expression of EFTFs (qPCR) ([1]; WNT antagonist 2.5 μM): enhanced

Cc1c[nH]c(-c2cnc(NCCNc3ccc(C#N)cn3)nc2-c2ccc(Cl)cc2Cl)n1 [CHIR99021]
expression of EFTFs (qPCR) ([1]; WNT agonist 3 μM from day 0 to day 10 of retinal differentiation): suppressed | PAX6D-induced retinal differentiation (expression of VSX2, LHX2, SIX6, NR2F1 and VAX2 at day 10) (PAX6D TetOn cells [2]; PAX6D TetOn cells induced by DOX, WNT agonist from day 0 to day 10): completely blocked

C[C@H]1c2cccc(O)c2C(=O)C2=C(O)[C@]3(O)C(=O)C(C(N)=O)=C(O)[C@@H](N(C)C)[C@@H]3[C@@H](O)[C@@H]21 [DOX, doxycycline]
SOX1-/SOX2+ retinal progenitor population (flow cytometry) (PAX6D TetOn cells [3]): 23.1% | SOX1-/SOX2+ retinal progenitor population (flow cytometry) (PAX6A TetOn cells): 2.22% | VAX2 expression increase (PAX6D TetOn cells [2]; [4]): 2 fold | VSX2 expression increase (PAX6D TetOn cells [2]; [4]): 3 fold
